Experiment: recombinant UMI read abundance after kanamycin selection (control-corrected) (log10(CPM+1)); higher = more efficient recombination; extreme values may be limits of the assay; sequences stand for … in AGTGCAGAGAAAATCGGCCAGTTTTCTCTGCCTGCAGTCCGCATGCCGTGGGACCCCTTGGGTTCTAACCTGTTGCCTAGATTTATGCAGCGGACTGCCTTTCTCCCAAAGTGATAAACCGG…AGGTTGGTTTCACT; site = the 11-nt donor
Protocol: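 Pooled E. coli donor-specificity screen for the IS621 bridge recombinase. Each library member carries a reprogrammed 11-nt donor and a full-length LE bridge RNA expressed in cis from the natural promoter, with a paired donor-binding loop (8-nt LDG + 4-nt RDG) and a target-binding loop fixed to T5. It is co-electroporated with a T5 target plasmid; recombinase is induced with 0.07 mM IPTG and recombinants are selected on kanamycin. UMIs are counted as CPM, averaged over two biological replicates and corrected by the unselected control. Molecule = full bridge RNA written as DNA, built from the T5 scaffold: LDG = donor specificity nt 1-8, RDG = reverse complement of nt 8-11.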
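Note: IS621 bridge recombinase in Escherichia coli cells against a fixed T5 target plasmid.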

In order of rising “recombinant UMI read abundance (log10)” value:
1. ACAGTATCATGGACCGGTTTTCCCGGTAATCCGTATTTGCA (site GCAGTAACTTG)  0
2. ACAGTATCATGGACCGGTTTTCCCGGTAATCCGTATTTGCA (site TCAGTATCTTA)  0
3. ACAGTCTCATGGACCGGTTTTCCCGGTAATCCGTATTTGCT (site ACAGTATCTTG)  0
4. ACAGTTTCATGGACCGGTTTTCCCGGTAATCCGTATTTGCG (site ACAGTATCTTG)  0
5. ACATCTACATGGACCGGTTTTCCCGGTAATCCGTATTTGTC (site ACATCTACTGA)  0
6. ACATCTACATGGACCGGTTTTCCCGGTAATCCGTATTTGTT (site ACATCTACTGA)  0
7. ACATGTACATGGACCGGTTTTCCCGGTAATCCGTATTTGTG (site ACATTTACTCA)  0
8. ACAGTATCATGGACCGGTTTTCCCGGTAATCCGTATTTGCA (site TCAGTATCTCG)  0.00474
9. ACATGTACATGGACCGGTTTTCCCGGTAATCCGTATTTGTG (site ACATCTACTCA)  0.00614
10. ACCCGTCCATGGACCGGTTTTCCCGGTAATCCGTATTTGAT (site AACCGTCCTAT)  0.00657
11. ACAGTATCATGGACCGGTTTTCCCGGTAATCCGTATTTGCA (site GCAGTATCTTC)  0.00944
12. ACATCTACATGGACCGGTTTTCCCGGTAATCCGTATTTGTT (site ACATCTACTCA)  0.0105
13. ACATCTACATGGACCGGTTTTCCCGGTAATCCGTATTTGTC (site ACATCTACTCA)  0.0109
14. ACATCTACATGGACCGGTTTTCCCGGTAATCCGTATTTGTC (site ACATCTACTTA)  0.0124
15. ACCCGTCCATGGACCGGTTTTCCCGGTAATCCGTATTTGAT (site ATCCGTCCTAT)  0.015
16. ACCCGTCCATGGACCGGTTTTCCCGGTAATCCGTATTTGAT (site AGCCGTCCTAT)  0.0209
17. ACATCTACATGGACCGGTTTTCCCGGTAATCCGTATTTGTC (site ACATCTACTAA)  0.0236
18. ACAGTATCATGGACCGGTTTTCCCGGTAATCCGTATTTGCA (site TCGGTATCTTG)  0.0345
19. ACATCTACATGGACCGGTTTTCCCGGTAATCCGTATTTGTT (site ACATCTACTTA)  0.0357
20. ACAGTATCATGGACCGGTTTTCCCGGTAATCCGTATTTGCA (site GCAGTATCTAG)  0.0509
21. ACCAGCCCATGGACCGGTTTTCCCGGTAATCCGTATTTGCT (site ACCAGCCCTAG)  0.0684
22. ACAGTATCATGGACCGGTTTTCCCGGTAATCCGTATTTGCA (site TCAGTAGCTTG)  0.0987
23. ACATCTACATGGACCGGTTTTCCCGGTAATCCGTATTTGTT (site ACATCTACTAA)  0.142
24. ACAGTCTCATGGACCGGTTTTCCCGGTAATCCGTATTTGCA (site ACAGTTTCTTG)  0.155
25. ACCCGTCCATGGACCGGTTTTCCCGGTAATCCGTATTTGAT (site ACCCGTCCTAT)  0.224
26. ACAGTGCCATGGACCGGTTTTCCCGGTAATCCGTATTTGAG (site ACAGTGCCTCT)  0.285
27. ACAGTATCATGGACCGGTTTTCCCGGTAATCCGTATTTGCA (site GCAGTCTCTTG)  0.292
28. ACCCGTCCATGGACCGGTTTTCCCGGTAATCCGTATTTGTA (site ACCCGTCCTTA)  0.613
29. ACATGTACATGGACCGGTTTTCCCGGTAATCCGTATTTGTG (site ACATATACTCA)  0.616
30. ACAGTATCATGGACCGGTTTTCCCGGTAATCCGTATTTGGT (site ACAGTATCTTG)  0.731
31. ACAGTGTCATGGACCGGTTTTCCCGGTAATCCGTATTTGCA (site ACAGTTTCTTG)  0.818
32. ACAGTATCATGGACCGGTTTTCCCGGTAATCCGTATTTGCA (site TCACTATCTTG)  0.822
33. ACAGTGCCATGGACCGGTTTTCCCGGTAATCCGTATTTGCA (site ACAGTATCTTG)  0.852
34. ACCGTCTCATGGACCGGTTTTCCCGGTAATCCGTATTTGCA (site ACAGTATCTTG)  0.902
35. ACATGTACATGGACCGGTTTTCCCGGTAATCCGTATTTGTG (site ACATGTACTCA)  1.07
36. ACAGTATCATGGACCGGTTTTCCCGGTAATCCGTATTTGCA (site TCAGTTTCTTG)  1.26
37. ACAGTATCATGGACCGGTTTTCCCGGTAATCCGTATTTGCA (site CGAGTATCTTG)  1.36
38. ACATTGTCATGGACCGGTTTTCCCGGTAATCCGTATTTGCA (site ACAGTATCTTG)  1.37
39. ACAGTGCCATGGACCGGTTTTCCCGGTAATCCGTATTTGCA (site ACAGTGCCTTG)  1.38
40. ACAGTATCATGGACCGGTTTTCCCGGTAATCCGTATTTGCA (site GCAGAATCTTG)  1.47
41. ACAGTATCATGGACCGGTTTTCCCGGTAATCCGTATTTGCA (site GCAATATCTTG)  1.63
42. ACATACACATGGACCGGTTTTCCCGGTAATCCGTATTTGAG (site ACATACACTCT)  1.79
43. ACAGTCACATGGACCGGTTTTCCCGGTAATCCGTATTTGCA (site ACAGTATCTTG)  1.84
44. ACAGTATCATGGACCGGTTTTCCCGGTAATCCGTATTTGCA (site GCCGTATCTTG)  1.88
45. ACAGTGTCATGGACCGGTTTTCCCGGTAATCCGTATTTGCA (site ACAGTCTCTTG)  2
46. ACATGCACATGGACCGGTTTTCCCGGTAATCCGTATTTGTC (site ACATGCACTGA)  2.06
47. ACCAAGTCATGGACCGGTTTTCCCGGTAATCCGTATTTGTG (site ACCAAGTCTCA)  2.15
48. ACATGCGCATGGACCGGTTTTCCCGGTAATCCGTATTTGAT (site ACATGCGCTAT)  2.22
49. ACAGTCTCATGGACCGGTTTTCCCGGTAATCCGTATTTGCA (site ACAGTATCTTG)  2.26
50. ACAGTCTCATGGACCGGTTTTCCCGGTAATCCGTATTTGCA (site ACAGTGTCTTG)  2.28
51. ACAGTATCATGGACCGGTTTTCCCGGTAATCCGTATTTGCA (site CCTGTATCTTG)  2.37
52. ACAGTATCATGGACCGGTTTTCCCGGTAATCCGTATTTGCA (site TCAGCATCTTG)  2.37
53. ACAGTATCATGGACCGGTTTTCCCGGTAATCCGTATTTGCA (site GCAGTATCTTG)  2.41
54. ACCAATTCATGGACCGGTTTTCCCGGTAATCCGTATTTGCT (site ACCAATTCTAG)  2.42
55. ACCCCAACATGGACCGGTTTTCCCGGTAATCCGTATTTGAC (site ACCCCAACTGT)  2.49
56. ACAGTATCATGGACCGGTTTTCCCGGTAATCCGTATTTGCA (site TCAGTATCTTG)  2.54
57. ACAGTCACATGGACCGGTTTTCCCGGTAATCCGTATTTGCA (site ACAGTCACTTG)  2.58
58. ACAGTATCATGGACCGGTTTTCCCGGTAATCCGTATTTGGT (site ACAGTATCTAC)  2.61
59. ACAGTTTCATGGACCGGTTTTCCCGGTAATCCGTATTTGCG (site ACAGTTTCTCG)  2.64
60. ACAGTATCATGGACCGGTTTTCCCGGTAATCCGTATTTGCA (site TTAGTATCTTG)  2.66
61. ACATACTCATGGACCGGTTTTCCCGGTAATCCGTATTTGCA (site GCATACTCTTG)  2.66
62. ACATACTCATGGACCGGTTTTCCCGGTAATCCGTATTTGCA (site CCATACTCTTG)  2.69
63. ACCACGACATGGACCGGTTTTCCCGGTAATCCGTATTTGAC (site ACCACGACTGT)  2.72
64. ACATTGTCATGGACCGGTTTTCCCGGTAATCCGTATTTGCA (site ACATTGTCTTG)  2.75
65. ACATACTCATGGACCGGTTTTCCCGGTAATCCGTATTTGCA (site ACATACTCTTG)  2.8
66. ACATACTCATGGACCGGTTTTCCCGGTAATCCGTATTTGCA (site TCATACTCTTG)  2.8
67. ACAGTATCATGGACCGGTTTTCCCGGTAATCCGTATTTGCA (site GAAGTATCTTG)  2.82
68. ACCGTCTCATGGACCGGTTTTCCCGGTAATCCGTATTTGCA (site ACCGTCTCTTG)  2.85
69. ACAGTCTCATGGACCGGTTTTCCCGGTAATCCGTATTTGCT (site ACAGTCTCTAG)  2.94
70. ACAGTCTCATGGACCGGTTTTCCCGGTAATCCGTATTTGCA (site ACAGTCTCTTG)  3.22
71. ACAGTGTCATGGACCGGTTTTCCCGGTAATCCGTATTTGCA (site ACAGTGTCTTG)  3.29
72. ACAGTGTCATGGACCGGTTTTCCCGGTAATCCGTATTTGCA (site ACAGTATCTTG)  3.35
